Measured values published in publication PMC11593696, “Discovery of Potent Benzothiazole Inhibitors of Oxidoreductase NQO2, a Target for Inflammation and Cancer” (International Journal of Molecular Sciences, 2024).
Read-outs that look alike come from different tables or passages of the source.

Columns and labels:
[1] = target: T1, recombinant human NQO2 (Homo sapiens, UniProt P16083); assay: NQO2 enzyme inhibition assay (DCPIP substrate, NRH or EPR co-substrate); assay type: biochemical
T1 sequence (P16083 1-231): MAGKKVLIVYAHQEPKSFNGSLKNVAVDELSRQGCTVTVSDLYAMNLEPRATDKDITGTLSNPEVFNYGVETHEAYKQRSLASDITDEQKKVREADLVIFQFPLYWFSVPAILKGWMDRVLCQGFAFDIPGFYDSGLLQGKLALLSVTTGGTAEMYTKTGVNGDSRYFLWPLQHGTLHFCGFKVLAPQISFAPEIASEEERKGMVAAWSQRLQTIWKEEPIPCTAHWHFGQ
Experimental: In this assay, dichlorophenolindophenol (DCPIP) was used as a substrate for NQO2. NRH (SI or EP0152R) was used as the co-substrate for the enzyme.
The NQO2 enzyme assay was carried out using a […] GO spectrophotometer by measuring the absorbance of DCPIP at 600 nm. NRH [31] or EPR were used as co-substrates. The experiment was performed using a 96-well plate with a […] final volume using phosphate buffer (50 mM, pH 7.4). The final concentrations were DCPIP 40 µM and NRH or EPR 200 µM. The final enzyme concentration was 100 ng. The assay was performed at 37 °C and initiated through the addition of NQO2. The initial rates of the enzyme reactions were calculated from the curve by taking the initial slopes of the reactions using the formula (ΔAb/ΔTime). The assay of inhibitors was carried out using the same assay conditions. […] Each experiment was performed in triplicate. Rates were converted to the percentage of enzyme activity, and IC50 values were calculated using GraphPad Prism 7.03 software using the non-linear regression function. IC50 values were determined as a 50% decrease in NQO2 activity.

[2] = target: NQO2; settings: read-out: dissociation constant; cited from earlier work
[3] = DCPIP substrate, NRH co-substrate, read-out: IC50 for inhibition of NQO2
[4] = inhibition of NQO2, DCPIP 40 µM, NRH or EPR 200 µM, phosphate buffer pH 7.4, 37 °C, triplicate, read-out: IC50 (µM) ± SD

## COc1cc(-c2nc3ccc(NC(=O)c4ccccc4)cc3s2)cc(OC)c1OC [Compound 50, N-(2-(3,4,5-Trimethoxyphenyl)benzo[d]thiazol-6-yl)benzamide]
[1]; [3]
  IC50: 3.17 µM
[1]; [4]
  IC50: 3.17 ± 0.031 µM
other
  melting point: 205 to 207 °C

## COc1ccc(-c2nc3ccc(F)cc3s2)cc1 [Compound 54, 6-Fluoro-2-(4-methoxyphenyl)benzo[d]thiazole]
[1]; [3]
  IC50: > 100 µM
[1]; [4]
  IC50: > 100 µM
other
  melting point: 127 to 130 °C

## COc1cc(OC)cc(-c2nc3ccc(NC(C)=O)cc3s2)c1 [Compound 12, N-(2-(3,5-Dimethoxyphenyl)benzo[d]thiazol-6-yl)acetamide]
[1]; [3]
  IC50: 0.605 µM
[1]; [4]
  IC50: 0.605 ± 0.06 µM
other
  melting point: 179 to 181 °C

## Oc1ccc(/C=C/c2cc(O)cc(O)c2)cc1 [Resveratrol, trans-3,4’,5-trihydroxystilbene]
[2]
  Kd: 0.035 µM

## COc1cc(-c2nc3ccc(Cl)cc3s2)cc(OC)c1OC [Compound 43, 6-Chloro-2-(3,4,5-trimethoxyphenyl)benzo[d]thiazole]
[1]; [4]
  IC50: 0.773 ± 0.016 µM
other
  melting point: 173 to 174 °C

## COc1ccc(-c2nc3ccc([N+](=O)[O-])cc3s2)cc1OC [Compound 39, 2-(3,4-Dimethoxyphenyl)-6-nitrobenzo[d]thiazole]
[1]; [4]
  IC50: 63.28 ± 0.02 µM
other
  melting point: 221 to 222 °C

## COc1cc(OC)cc(C(=O)Nc2ccc3nc(-c4cc(OC)c(OC)c(OC)c4)sc3c2)c1 [Compound 51, 3,5-Dimethoxy-N-(2-(3,4,5-trimethoxyphenyl)benzo[d]thiazol-6-yl)benzamide]
[1]; [4]
  IC50: 3.11 ± 0.03 µM
other
  melting point: 185 to 187 °C

## COc1cc(OC)cc(-c2nc3ccc(C#N)cc3s2)c1 [Compound 7, 2-(3,5-Dimethoxyphenyl)benzo[d]thiazole-6-carbonitrile]
[1]; [4]
  IC50: > 100 µM
other
  melting point: 222 to 224 °C

## COc1cc(-c2nc3ccc(Br)cc3s2)cc(OC)c1OC [Compound 41, 6-Bromo-2-(3,4,5-trimethoxyphenyl)benzo[d]thiazole]
[1]; [4]
  IC50: 0.193 ± 0.003 µM
other
  melting point: 171 to 172 °C

## COc1cc(-c2nc3ccc(N)cc3s2)cc(OC)c1OC [Compound 48, 2-(3,4,5-Trimethoxyphenyl)benzo[d]thiazol-6-amine]
[1]; [3]
  IC50: 0.079 µM
[1]; [4]
  IC50: 0.079 ± 0.017 µM
other
  melting point: 212 to 215 °C

## Fc1cccc(-c2nc3ccc(F)cc3s2)c1 [Compound 55, 6-Fluoro-2-(3-fluorophenyl)benzo[d]thiazole]
[1]; [3]
  IC50: 52.6 µM
[1]; [4]
  IC50: 52.55 ± 0.06 µM
other
  melting point: 111 to 112 °C

## COc1cc(OC)cc(C(=O)Nc2ccc3nc(-c4cc(OC)cc(OC)c4)sc3c2)c1 [Compound 14, N-(2-(3,5-Dimethoxyphenyl)benzo[d]thiazol-6-yl)-3,5-dimethoxybenzamide]
[1]
  inhibition of NQO2 enzymatic activity, in words: further loss of activity
[1]; [4]
  IC50: 1.36 ± 0.06 µM
other
  melting point: 159 to 162 °C

## COc1ccc(-c2nc3ccc(Br)cc3s2)cc1OC [Compound 33, 6-Bromo-2-(3,4-dimethoxyphenyl)benzo[d]thiazole]
[1]; [3]
  IC50: 9.09 µM
[1]; [4]
  IC50: 9.09 ± 0.04 µM
other
  melting point: 165 to 168 °C
